The target of the assay is T1, p-hTMD1-p-CFTR (pig CFTR with human CFTR's TMD1) (Sus scrofa, UniProt Q6PQZ2, A115E/A228G/F12V/H39Q/I11V/I421T/I87F/K242R/K407E/L215I/L315F/L328I/M332I/N256S/N426D/P145L/S418N/S41P/S43V/S445N/T209A/V125I/V231I).
T1 construct: expressed in transfected cells; host or cells: CHO cells, pcDNA plasmid
Kind of assay: Inside-out patch-clamp inhibition of CFTR current by Inh-172. The format is cell-based. (In general: The patch-clamp technique gives a direct electrical read-out from membranes.)

Where “and” joins values, the source holds several entries; their conditions need not be identical. Identical values can stand only once. Like-named read-outs stand apart in the source and are kept apart here.

T1 sequence (Q6PQZ2 1-1482 with the stated changes): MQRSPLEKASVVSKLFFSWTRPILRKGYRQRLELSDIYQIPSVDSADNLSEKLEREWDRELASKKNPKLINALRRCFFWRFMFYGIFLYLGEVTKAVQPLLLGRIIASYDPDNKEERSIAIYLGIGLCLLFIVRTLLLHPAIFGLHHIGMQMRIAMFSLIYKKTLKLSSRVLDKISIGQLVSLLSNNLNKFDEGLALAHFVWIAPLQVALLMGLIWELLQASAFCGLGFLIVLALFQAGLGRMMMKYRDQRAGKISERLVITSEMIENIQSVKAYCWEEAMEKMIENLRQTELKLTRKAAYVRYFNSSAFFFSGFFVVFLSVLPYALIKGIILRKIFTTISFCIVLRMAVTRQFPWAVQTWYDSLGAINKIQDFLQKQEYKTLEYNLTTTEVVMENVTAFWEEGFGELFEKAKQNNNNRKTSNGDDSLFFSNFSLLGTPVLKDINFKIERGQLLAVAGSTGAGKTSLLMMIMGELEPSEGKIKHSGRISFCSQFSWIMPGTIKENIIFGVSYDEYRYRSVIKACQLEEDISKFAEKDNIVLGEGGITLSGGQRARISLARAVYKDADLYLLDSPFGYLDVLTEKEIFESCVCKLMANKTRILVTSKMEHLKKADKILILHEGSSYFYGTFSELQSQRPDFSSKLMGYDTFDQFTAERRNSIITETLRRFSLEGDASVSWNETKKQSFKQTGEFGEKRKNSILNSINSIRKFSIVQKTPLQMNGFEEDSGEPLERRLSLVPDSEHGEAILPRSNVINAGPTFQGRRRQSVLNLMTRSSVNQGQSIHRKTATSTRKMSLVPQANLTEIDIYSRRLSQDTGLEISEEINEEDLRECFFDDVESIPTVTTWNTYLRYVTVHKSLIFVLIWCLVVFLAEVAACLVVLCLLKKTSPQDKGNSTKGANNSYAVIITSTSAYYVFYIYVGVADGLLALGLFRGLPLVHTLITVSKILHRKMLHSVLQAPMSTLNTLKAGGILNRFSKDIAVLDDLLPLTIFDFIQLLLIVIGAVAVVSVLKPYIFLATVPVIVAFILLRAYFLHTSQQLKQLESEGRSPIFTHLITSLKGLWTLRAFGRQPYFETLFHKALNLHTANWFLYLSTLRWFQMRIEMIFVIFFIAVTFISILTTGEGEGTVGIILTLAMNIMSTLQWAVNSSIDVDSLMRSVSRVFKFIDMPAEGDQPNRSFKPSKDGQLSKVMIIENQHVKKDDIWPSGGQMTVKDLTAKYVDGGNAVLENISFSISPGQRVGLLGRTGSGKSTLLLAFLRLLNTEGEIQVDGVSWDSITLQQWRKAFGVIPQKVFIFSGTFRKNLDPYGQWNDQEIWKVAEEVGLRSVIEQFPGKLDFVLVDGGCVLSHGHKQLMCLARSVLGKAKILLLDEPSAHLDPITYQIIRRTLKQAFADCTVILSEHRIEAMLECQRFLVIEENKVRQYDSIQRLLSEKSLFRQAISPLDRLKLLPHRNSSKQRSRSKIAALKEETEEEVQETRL

One may read the inhibition as the percentage by which the read-out fell short of the control. Broadly, the IC50 is the concentration at which inhibition is half-maximal. As to `O=C(O)c1ccc(/C=C2\SC(=S)N(c3cccc(C(F)(F)F)c3)C2=O)cc1` [Inh-172, CFTRinh-172], the “percent inhibition of current, individual cell” value reads like this: (100 nM Inh-172) 4 and 3 and 1; (500 nM Inh-172) 17 and 15; (1000 nM Inh-172) 30 and 24; (5000 nM Inh-172) 67 and 68; (10000 nM Inh-172) 83 and 81. For the same molecule, the inhibition at 0.1 µM (100 nM Inh-172, read-out: percent inhibition of current, Mean) was determined as 2.7%. In addition, the inhibition at 0.5 µM (500 nM Inh-172, read-out: percent inhibition of current, Mean) came to 17.3% and the inhibition at 0.5 µM (500 nM Inh-172, read-out: percent inhibition of current, individual cell) is 20%. Further, the inhibition at 1 µM reads like this: (1000 nM Inh-172, read-out: percent inhibition of current, Mean) 32%; (1000 nM Inh-172, read-out: percent inhibition of current, individual cell) 42%. Besides, the inhibition at 5 µM stood at 68.7% (5000 nM Inh-172, read-out: percent inhibition of current, Mean) and 71% (5000 nM Inh-172, read-out: percent inhibition of current, individual cell). Besides, the inhibition at 10 µM (10000 nM Inh-172, read-out: percent inhibition of current, Mean) turned out to be 83.3% and the inhibition at 10 µM (10000 nM Inh-172, read-out: percent inhibition of current, individual cell) was 86%. In addition, where the note is “p-hTMD1-p”, the “Hill Coefficient” value came to 1.03 ± 0.03. The IC50 (p-hTMD1-p) is 2210 ± 70 nM.

The record behind these values is paper PMC11303713, “Allosteric inhibition of CFTR gating by CFTRinh-172 binding in the pore” (Nature Communications, 2024).
